{"source": "paper PMC4925669", "about": "“Phytochemicals Mediate the Expression and Activity of OCTN2 as Activators of the PPARγ/RXRα Pathway” (Frontiers in Pharmacology, 2016)", "biological_target": "T1, PPARγ (Homo sapiens, UniProt P37231)", "T1 construct": "gene PPARG; pcDNA3.1-PPARγ; with RXRα", "T1 sequence (P37231 1-505)": "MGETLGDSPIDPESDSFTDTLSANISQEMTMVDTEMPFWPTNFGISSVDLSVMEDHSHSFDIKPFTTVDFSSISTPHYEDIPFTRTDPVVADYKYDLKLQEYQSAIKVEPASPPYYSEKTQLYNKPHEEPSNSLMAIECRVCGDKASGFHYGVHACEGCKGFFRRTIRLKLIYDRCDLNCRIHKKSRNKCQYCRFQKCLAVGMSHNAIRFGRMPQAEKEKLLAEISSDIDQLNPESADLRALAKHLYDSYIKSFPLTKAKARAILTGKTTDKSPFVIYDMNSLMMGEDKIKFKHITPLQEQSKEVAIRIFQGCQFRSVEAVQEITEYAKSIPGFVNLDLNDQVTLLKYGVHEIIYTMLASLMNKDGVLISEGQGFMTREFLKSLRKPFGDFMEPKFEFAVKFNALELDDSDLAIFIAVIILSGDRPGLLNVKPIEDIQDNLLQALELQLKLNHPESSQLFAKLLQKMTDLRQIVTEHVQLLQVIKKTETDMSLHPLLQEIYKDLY", "T1 sequence (P19793 1-462 partner)": "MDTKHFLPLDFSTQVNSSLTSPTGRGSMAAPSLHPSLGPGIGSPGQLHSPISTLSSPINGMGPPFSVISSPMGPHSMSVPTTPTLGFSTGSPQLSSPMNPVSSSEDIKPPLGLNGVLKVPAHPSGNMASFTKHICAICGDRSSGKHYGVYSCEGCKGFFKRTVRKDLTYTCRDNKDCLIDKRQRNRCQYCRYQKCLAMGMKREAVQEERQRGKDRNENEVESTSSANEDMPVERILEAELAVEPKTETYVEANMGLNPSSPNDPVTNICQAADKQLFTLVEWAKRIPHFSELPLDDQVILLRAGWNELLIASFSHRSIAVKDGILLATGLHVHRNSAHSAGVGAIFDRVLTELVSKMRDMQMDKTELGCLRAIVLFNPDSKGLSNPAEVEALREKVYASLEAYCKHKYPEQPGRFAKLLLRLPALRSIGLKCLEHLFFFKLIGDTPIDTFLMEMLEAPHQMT", "assay": "PPRE/OCTN2 dual-luciferase transactivation assay in COS-7 cells transfected with PPARγ/RXRα, blocked by GW9662", "assay_type": "cell-based"}
{"smiles": "O=c1c(O)c(-c2ccc(O)cc2)oc2cc(O)cc(O)c12", "note": "[Kaempferol]", "values": [{"measurement": "Relative RFU fold change (% of blank)", "value": "189.89 ± 5.98 % of blank"}]}
